Reference: paper PMC6474902, “Examination of novel 4-aminoquinoline derivatives designed and synthesized by a hybrid pharmacophore approach to enhance their anticancer activities” (Scientific Reports, 2019)
“Also recorded” adds a separate entry of the source. Where two headings read alike, the source gives them in different places.

Legend:
[1] = system: MDA-MB231, MDA-MB468, MCF7 breast cancer cells; 184B5 and MCF10A non-cancer breast cells; test: SRB assay, panel of breast cancer and non-cancer breast cell lines; type: cell-based, human; conditions: judged from GI50 values of Table 1
Experimental: (§1) The antigrowth effects of 4-piperazinylquinoline sulfonyl analogs on human breast tumor cells was initially evaluated using MDA-MB468 (a PTEN defective, EGFR positive breast adenocarcioma), MDA-MB231 (p53 and pRB mutated, triple-negative breast carcinoma), and MCF7 (p53+/−, invasive ductal breast carcinoma) cell lines. In addition, the cytotoxicity of all the compounds was also evaluated with the 184B5 and MCF10A non-cancer immortalized breast epithelial cell lines, to determine if these newly synthesized compounds have differential cytotoxic effects on cancer and non-cancer cells. The panel of three breast cancer cell lines with different genetic back ground and the well-studied two non-cancer immortalized breast cell lines would provide insights into the efficacy and toxicity of the test compounds in the different genetic background and at different stages of tumor development. The dose response of each cell line was established by determining the number of viable cells after 48 h of continuous drug treatment against seven different concentrations (100 µM to 0.0064 µM) of each compound. The reading of sulphorodamine B (SRB) staining is known to accurately reflect the level of total cellular macromolecules/cell growth/proliferation[6],[23]. […] The data for CQ and cisplatin were included as references. […] The differences in the GI50 values may be attributable to such factors as the nature of the sulfonyl group and the halogen substitution on the 7th position of the 4-piperazinylquinoline ring system, and the genetic and biochemical background of the cell lines.
(§2) Antiproliferative/antigrowth effects were determined by a SRB-based protocol[6],[23]. For a typical screening experiment, 5,000–10,000 cells were inoculated into 100 µL medium per well of a 96-well microtiter plate as described previously. Briefly, after the inoculation, the microtiter plate was incubated at 37 °C, 5% CO2, 95% air and 100% relative humidity for 24 h, prior to addition of experimental drugs. Some of the sample wells were fixed with 25 µL of 50% tricholoroacetic acid (TCA) as a control of the cell population for each cell line at the time of drug addition (Tz). An aliquot of the frozen stock was thawed and diluted to a desired final maximum test-concentration with complete medium. Two to ten-fold serial dilutions were made to provide a total of seven drug concentrations (and a control [C]). Following addition of drugs, the culture plate was incubated for additional 48 h. Cells were fixed in situ by slowly adding 25 µL of ice-cold 50% (w/v) TCA (final concentration, 10% TCA), and were then incubated for 60 min at 4 °C. The supernatant was discarded, and the plate was washed five times with tap water, followed by air-dry. 50 µL of SRB solution at 0.4% (w/v) in 1% acetic acid was added to each well, and the plate was incubated for >30 min at room temperature. Unbound SRB was removed by five washes with tap water, followed by air-drying. The cells “stained” with SRB were solubilized with 10 mM trizma base, and the absorbance was read on an automated plate reader at a wavelength of 515–564 nm. The relative growth rate (%) was calculated for each of the compound concentrations according to the following formula: (Ti−Tz)/(C−Tz)×100
(§3) In the formula, time zero (Tz), control growth (C), and OD for different concentration of tested compounds (Ti). The GI50 for each compound was obtained from a non-linear Sigmoidal dose-response (variable slope) curve which is fitted by GraphPad Prism v.4.03 software. Values were calculated for each of these parameters if the level of activity was reached. However, if the effect was not reached or was exceeded, the value for that parameter was expressed as greater or less than the maximum or minimum concentration tested.

MDA-MB468 = test: SRB antiproliferative/antigrowth assay; type: cell-based, human; conditions: SRB, 48 h post-treatment, mean of triplicates of at least two experiments, read-out: GI50 MB468
Experimental: as §1, §2, §3

MDA-MB231 = test: SRB antiproliferative/antigrowth assay; type: cell-based, human; conditions: SRB, 48 h post-treatment, mean of triplicates of at least two experiments, read-out: GI50 MB231
Experimental: as §1, §2, §3

MCF7 = test: SRB antiproliferative/antigrowth assay; type: cell-based, human; conditions: for GI50: SRB, 48 h post-treatment, mean of triplicates of at least two experiments, read-out: GI50 MCF7
Experimental: as §1, §2, §3

MCF10A = test: SRB antiproliferative/antigrowth assay, non-cancer cells; type: cell-based, human; conditions: SRB, 48 h post-treatment, non-cancer breast epithelial cells, read-out: GI50 MCF10A
Experimental: as §1, §2, §3

184B5 = test: as above; type: cell-based, human; conditions: SRB, 48 h post-treatment, non-cancer breast epithelial cells, read-out: GI50 184B5
Experimental: as §1, §2, §3

Structure (SMILES)	preferential antigrowth effect on cancer versus non-cancer cells (in words) [1]	GI50 (MDA-MB468) [µM]	GI50 (MDA-MB231) [µM]	GI50 (MCF7) [µM]	GI50 (MCF10A) [µM]	GI50 (184B5) [µM]	melting point [°C]	GI50 (MDA-MB468; Homo sapiens, MDA-MB-468, 48 h) [µM]	GI50 (MDA-MB231; Homo sapiens, MDA-MB-231, 48 h) [µM]	GI50 (MCF7; Homo sapiens, MCF7, 48 h) [µM]	GI50 (MCF10A; Homo sapiens, MCF-10A, 48 h) [µM]	GI50 (184B5; Homo sapiens, 184B5, 48 h) [µM]	increase in potency against MCF7 compared to CQ (MCF7; ratio of GI50 values) [fold]
N.N.[Cl][Pt][Cl] [Cisplatin, reference compound]	similar	31 ± 0.5	23.7 ± 0.2	25.8 ± 0.4	51.5 ± 0.9	25.5 ± 0.4	–	–	–	–	–	–	–
Cc1ccc(S(=O)(=O)N2CCN(c3ccnc4cc(Cl)ccc34)CC2)cc1 [Compound 8, 7-Chloro-4-(4-tosylpiperazin-1-yl)quinoline]	effective and preferential antigrowth effects on cancer cells; also recorded: stronger antigrowth/antiproliferation activity against cancer cells than non-cancer cells	–	–	–	–	–	190 to 192	28.8 ± 0.7	34.1 ± 0.7	16.1 ± 0.6	44.4 ± 0.7	47.5 ± 0.9	–
Cc1ccc(S(=O)(=O)NCCCNc2ccnc3cc(C(F)(F)F)ccc23)cc1 [Compound 35, 4-Methyl-N-[3-(7-trifluoromethyl-quinolin-4-ylamino)-propyl]-benzenesulfonamide]	effective and preferential antigrowth effects on cancer cells; also recorded: stronger antigrowth/antiproliferation activity against cancer cells than non-cancer cells	–	–	–	–	–	77 to 79	6.2 ± 0.4	6.4 ± 0.5	6.9 ± 0.5	10.9 ± 0.9	12.2 ± 0.9	–
CN(C)c1cccc2c(S(=O)(=O)NCCCNc3ccnc4cc(Cl)ccc34)cccc12 [Compound 32, 5-Dimethylamino-naphthalene-1-sulfonic acid [3-(7-chloro-quinolin-4-ylamino)-propyl]-amide]	loss of preferential antigrowth effects on cancer cells	–	–	2.5 ± 0.1	–	–	190 to 192	4.6 ± 0.4	12.7 ± 1	2.45	2.6 ± 0.1	1.7 ± 0.1	15.7
CS(=O)(=O)N1CCN(c2ccnc3cc(C(F)(F)F)ccc23)CC1 [Compound 16, 4-(4-Methanesulfonyl-piperazin-1-yl)-7-trifluoromethyl-quinoline]	effective and preferential antigrowth effects on cancer cells; also recorded: stronger antigrowth/antiproliferation activity against cancer cells than non-cancer cells	–	–	–	–	–	116 to 118	28.6 ± 0.7	44.4 ± 0.9	25.6 ± 0.3	75.8 ± 0.8	93.9 ± 0.9	–
O=[N+]([O-])c1cccc(S(=O)(=O)NCCCNc2ccnc3cc(C(F)(F)F)ccc23)c1 [Compound 39, 3-Nitro-N-[3-(7-trifluoromethyl-quinolin-4-ylamino)-propyl]-benzenesulfonamide]	–	–	–	–	–	–	98 to 100	9.1 ± 0.6	15.7 ± 1	8.3 ± 0.5	10.6 ± 0.9	8 ± 0.8	–
O=S(=O)(NCCCNc1ccnc2cc(Cl)ccc12)c1ccc(-c2ccccc2)cc1 [Compound 27, Biphenyl-4-sulfonic acid [3-(7-chloro-quinolin-4-ylamino)-propyl]-amide]	–	–	–	–	–	–	116 to 118	4.5 ± 0.4	4.6 ± 0.4	2.5 ± 0.2	2.6 ± 0.1	2.4 ± 0.1	–
COC(=O)c1sccc1S(=O)(=O)N1CCN(c2ccnc3cc(C(F)(F)F)ccc23)CC1 [Compound 24, 3-[4-(7-Trifluoromethyl-quinolin-4-yl)-piperazine-1-sulfonyl]-thiophene-2-carboxylic acid methyl ester]	–	–	–	–	–	–	117 to 119	23.9 ± 0.6	34.7 ± 0.7	16 ± 0.2	15.8 ± 0.1	15.9 ± 0.1	–
O=S(=O)(c1ccc(-c2ccccc2)cc1)N1CCN(c2ccnc3cc(C(F)(F)F)ccc23)CC1 [Compound 18, 4-[4-(Biphenyl-4-sulfonyl)-piperazin-1-yl]-7-trifluoromethyl-quinoline]	–	–	–	–	–	–	148 to 150	20.5 ± 0.5	27.2 ± 0.6	14.8 ± 0.2	15.5 ± 0.4	19.1 ± 0.2	–
Cc1ccc(S(=O)(=O)NCCCNc2ccnc3cc(Cl)ccc23)cc1 [Compound 26, N-[3-(7-Chloro-quinolin-4-ylamino)-propyl]-4-methyl-benzenesulfonamide]	effective and preferential antigrowth effects on cancer cells; also recorded: stronger antigrowth/antiproliferation activity against cancer cells than non-cancer cells	–	–	–	–	–	–	5.8 ± 0.4	6.2 ± 0.5	5.2 ± 0.5	12.2 ± 0.6	9.6 ± 0.5	–
Cc1ccc(S(=O)(=O)N2CCN(c3ccnc4cc(C(F)(F)F)ccc34)CC2)cc1 [Compound 17, 4-[4-(Toluene-4-sulfonyl)-piperazin-1-yl]-7-trifluoromethyl-quinoline]	–	–	–	–	–	–	126 to 128	36.5 ± 0.8	42.7 ± 0.8	20.8 ± 0.2	10.5 ± 0.1	12.9 ± 0.1	–
CN(C)c1cccc2c(S(=O)(=O)N3CCN(c4ccnc5cc(C(F)(F)F)ccc45)CC3)cccc12 [Compound 23, Dimethyl-{5-[4-(7-trifluoromethyl-quinolin-4-yl)-piperazine-1-sulfonyl]-naphthalen-1-yl}-amine]	–	–	–	–	–	–	98 to 100	19.1 ± 0.6	22.1 ± 0.6	12.9 ± 0.2	15.4 ± 0.5	12 ± 0.2	–
O=S(=O)(c1ccc(Cl)cc1)N1CCN(c2ccnc3cc(C(F)(F)F)ccc23)CC1 [Compound 19, 4-[4-(4-Chloro-benzenesulfonyl)-piperazin-1-yl]-7-trifluoromethyl-quinoline]	–	–	–	–	–	–	144 to 146	34.9 ± 0.8	41.4 ± 0.8	27.4 ± 0.3	13.6 ± 0.2	21.8 ± 0.3	–
COC(=O)c1sccc1S(=O)(=O)N1CCN(c2ccnc3cc(Cl)ccc23)CC1 [Compound 15, Methyl 3-(4-(7-chloroquinolin-4-yl)piperazin-1-ylsulfonyl)thiophene-2-carboxylate]	–	–	–	–	–	–	117 to 119	30.2 ± 0.7	40.4 ± 0.8	22.4 ± 0.2	14.6 ± 0.1	15.2 ± 0.2	–
O=S(=O)(NCCCNc1ccnc2cc(Cl)ccc12)c1ccc(Cl)cc1Cl [Compound 29, 2,4-Dichloro-N-[3-(7-chloro-quinolin-4-ylamino)-propyl]-benzenesulfonamide]	–	–	–	–	–	–	145 to 147	3.6 ± 0.1	6.8 ± 0.6	4 ± 0.2	6.8 ± 0.4	3.6 ± 0.2	–
